How the values were obtained:
[1] = test system: LM2 and MDA-MB-231 breast cancer cell lines; assay: PAICS 2D cell proliferation assay; assay type: cell-based; details: Homo sapiens; 72 hours incubation; cell line (LM2 or MDA-MB-231) not given
Experimental: Frozen cryovial stocks of LM2 and MDA-MB-231 breast cancer cell lines were thawed and cultured in 4.5 g/L glucose DMEM (31966-047, Invitrogen) supplemented with 10% Fetal Bovine Serum (10500-064, Invitrogen) until confluent in a T175 flask. Cells were incubated at 37° C. with 5% CO2 in a humidified incubator.
Cells were collected from T175 flasks by washing with PBS (10010-056, Invitrogen) and dissociated using Accutase (A6964, Sigma Aldrich). This was followed by centrifuging (1200 rpm, 5 min) and resuspending the cells in 10 ml of media containing 1% penicillin/streptomycin (15140-122, Invitrogen). Cells were counted by trypan blue exclusion method using an automated cell counter (Cellometer) and diluted to a concentration of 40,000/ml. 1000 cells were then seeded into 384-well white-walled plates (Corning, 3707) in a volume of 25 μl. Plates were incubated overnight at 37° C. with 5% CO2.
After 24 hours, PAICS compounds were added onto the assay plates using an HP D300 Digital Dispenser (Hewlett Packard). 10 mM stocks were used and dispensed as a 10 point concentration response curve (CRC) ½ log dilution series with a final top concentration of 100 μM. Controls were added onto each plate: positive controls included Staurosporine CRC (100 μM stock dispensed as a 10 point CRC ½ log dilution series with a final top concentration of 1 μM) and PAICS compound MRT00211919 (10 mM stock dispensed as a 10 point CRC ½ log dilution series with a final top concentration of 100 μM); a high control of Staurosporine (0.1 μM (LM2), 0.316 μM (MDA-MB-231) FAC) and a low control of media containing 1% DMSO. A final concentration of 1% DMSO was then added across the plates for normalisation. Following compound addition, assay plates were incubated for 72 hours at 37° C. with 5% CO2.
After 72 h incubation, dead and viable cells were measured in each assay plate. Cytotoxicity was assessed through fluorescent DNA staining using the CellTox™ Green Cytotoxicity Assay kit (G8743, Promega) following the manufacturer's multiplexing protocol. Impaired cell membrane integrity results in the access of dye to stain DNA allowing quantification of dead cells. Cell viability was determined following ATP quantification using the CellTiter-Glo® Luminescent Cell Viability Assay kit (G7572, Promega) following the manufacturer's protocol. ATP released from lysed cells allowed for the generation of a signal proportional to the number of cells present in the well. All endpoint reads were performed using the PheraSTAR Plus (BMG Labtech). Data is expressed as % viable cells and % dead cells against controls (mean±SEM of duplicate curves).

WT full length PAICS = molecular target: T1, WT full length PAICS (Homo sapiens, UniProt P22234); assay: Biochemical assay to measure PAICS activity (Transcreener ADP2 FI, SAICAR synthetase reaction); details: PAICS 2.5 nM, 30 mins pre-incubation, ADP detection by fluorescence intensity
T1 construct: 5 μl WT full length PAICS (final assay concentration, fac, 2.5 nM) in basic buffer
T1 sequence (P22234 1-425): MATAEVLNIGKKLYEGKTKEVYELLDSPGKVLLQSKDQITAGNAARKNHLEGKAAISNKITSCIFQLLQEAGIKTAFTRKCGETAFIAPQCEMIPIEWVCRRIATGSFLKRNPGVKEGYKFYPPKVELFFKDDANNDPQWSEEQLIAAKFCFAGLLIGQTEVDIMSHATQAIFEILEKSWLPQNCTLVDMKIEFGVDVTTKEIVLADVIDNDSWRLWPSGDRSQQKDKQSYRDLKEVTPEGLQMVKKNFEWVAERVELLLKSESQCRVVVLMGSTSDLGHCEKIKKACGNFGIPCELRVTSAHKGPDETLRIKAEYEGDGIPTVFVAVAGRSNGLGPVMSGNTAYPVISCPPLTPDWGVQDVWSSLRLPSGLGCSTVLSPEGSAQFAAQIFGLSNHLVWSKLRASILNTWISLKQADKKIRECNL
Excerpt: The biochemical assay was used to measure PAICS SAICAR synthetase-mediated conversion of CAIR, aspartic acid and ATP to SAICAR, ADP and inorganic phosphate (PI), post-AIR/CAIR equilibration (see FIG. 3). This was achieved by detecting the ADP generated during the reaction, using Bellbrook Lab's Transcreener ADP^2 FI assay. An increase in the fluorescence intensity is directly proportional to the amount of PAICS activity.
The Transcreener ADP^2 FI assay is a homogeneous competitive displacement fluorescence intensity assay which uses direct immunodetection of ADP. Displacement of the tracer by ADP causes an increase in the fluorescence at excitation 590 nm and emission 617 nm (FIG. 3).
5 μl WT full length PAICS (final assay concentration, fac, 2.5 nM) in basic buffer, added to black, non-binding, 384-well plates (Corning #3575), columns 1 to 22.5 μl basic buffer was added to columns 23+24 (negative control). PAICS stock at 31.9 μM from the PI's lab (Steve Firestine). Basic buffer contained 50 mM Tris-HCl pH8 and 0.5 mM EDTA, fac.
1 μl compound in 100% DMSO added per well, or 1 μl 100% DMSO to positive controls (columns 1+2) and negative controls (columns 23+24). Final assay top concentration of compound either 1 mM or 30 μM, serially diluted with half-log dilutions across the plate in duplicate (one 10-point concentration response curve across wells 3 to 12, another across 13 to 22). Compounds pre-incubated with PAICS enzyme for 30 mins at RT.
2 μl CAIR added (fac 10 μM) in basic buffer plus 25 mM MgCl2 and 50 mM KHCO3 fac to all wells. CAIR stock 50 mM from Steve Firestine's lab. 1 hr RT incubation for AIR-CAIR equilibration. NB: ˜50% CAIR is decarboxylated during equilibration therefore 5 μM remains for the synthetase reaction.
2 μl ATP/aspartic acid added (fac 30 μM/180 μM) in reaction buffer to all wells. 30 mins RT incubation for appropriate level of ATP turnover. Reaction buffer contained basic buffer plus 10 mM DTT, 0.01% BSA and 0.01% Brij 35, fac.
10 μl ADP detection reagent added to all wells (as per instructions, Transcreener ADP^2 FI kit, BellBrook Labs #3013-10K). Incubation for 1 h at RT to allow antibody equilibration. Fluorescence intensity determined using a Tecan Safire2 (excitation at 590 nm, emission at 617 nm).

Row | SMILES | EC50 [1] | IC50 (WT full length PAICS)
1 | N#Cc1nn(C2CCNCC2)cc1-c1ccc(Cl)c(NC(=O)c2coc(N)n2)c1 [Example 53, 2-Amino-N-(2-chloro-5-(3-cyano-1-(piperidin-4-yl)-1H-pyrazol-4-yl)phenyl)oxazole-4-carboxamide] | 100 to 250 nM | 10 to 25 nM
2 | Nc1nc(C(=O)Nc2cc(-c3ccn(C4CCNCC4)n3)ccc2Cl)co1 [Example 54, 2-amino-N-{2-chloro-5-[1-(piperidin-4-yl)-1H-pyrazol-3-yl]phenyl}-1,3-oxazole-4-carboxamide] | 250 to 500 nM | 10 to 25 nM
3 | Cc1nn(C2CCNCC2)cc1-c1ccc(Cl)c(NC(=O)c2coc(N)n2)c1 [Example 55, 2-Amino-N-(2-chloro-5-(3-methyl-1-(piperidin-4-yl)-1H-pyrazol-4-yl)phenyl)oxazole-4-carboxamide] | 100 to 250 nM | 10 to 25 nM
4 | CCNCCn1cc(-c2ccc(Cl)c(NC(=O)c3coc(N)n3)c2)cn1 [Example 56, 2-Amino-N-(2-chloro-5-(1-(2-(ethylamino)ethyl)-1H-pyrazol-4-yl)phenyl)oxazole-4-carboxamide] | 100 to 250 nM | 10 to 25 nM
5 | CN1CCN(CCn2cc(-c3ccc(Cl)c(NC(=O)c4coc(N)n4)c3)cn2)CC1 [Example 57, 2-Amino-N-(2-chloro-5-(1-(2-(4-methylpiperazin-1-yl)ethyl)-1H-pyrazol-4-yl)phenyl)oxazole-4-carboxamide] | 250 to 500 nM | 25 to 100 nM
6 | CN(C)CCNC(=O)Cn1cc(-c2ccc(Cl)c(NC(=O)c3coc(N)n3)c2)cn1 [Example 58, 2-Amino-N-{2-chloro-5-[1-(2-{[2-(dimethylamino)ethyl]amino}-2-oxoethyl)-1H-pyrazol-4-yl]phenyl}-1,3-oxazole-4-carboxamide] | 250 to 500 nM | 25 to 100 nM
7 | CN(C)C1CCN(C(=O)Cn2cc(-c3ccc(Cl)c(NC(=O)c4coc(N)n4)c3)cn2)CC1 [Example 59, 2-Amino-N-[2-chloro-5-(1-{2-[4-(dimethylamino)piperidin-1-yl]-2-oxoethyl}-1H-pyrazol-4-yl)phenyl]-1,3-oxazole-4-carboxamide] | 250 to 500 nM | 25 to 100 nM
8 | CC1CN(C(=O)Cn2cc(-c3ccc(Cl)c(NC(=O)c4coc(N)n4)c3)cn2)CCN1 (centres unmarked) [Example 60, 2-Amino-N-(2-chloro-5-{1-[2-(3-methylpiperazin-1-yl)-2-oxoethyl]-1H-pyrazol-4-yl}phenyl)-1,3-oxazole-4-carboxamide] | 250 to 500 nM | > 100 nM
9 | CN1CCC(NC(=O)Cn2cc(-c3ccc(Cl)c(NC(=O)c4coc(N)n4)c3)cn2)CC1 [Example 61, 2-Amino-N-[2-chloro-5-(1-{2-[(1-methylpiperidin-4-yl)amino]-2-oxoethyl}-1H-pyrazol-4-yl)phenyl]-1,3-oxazole-4-carboxamide] | 250 to 500 nM | 25 to 100 nM
10 | CN(C)CC(=O)N1CCC(n2cc(-c3ccc(Cl)c(NC(=O)c4coc(N)n4)c3)cn2)CC1 [Example 62, 2-Amino-N-(2-chloro-5-{1-[1-(N,N-dimethylglycyl)piperidin-4-yl]-1H-pyrazol-4-yl}phenyl)-1,3-oxazole-4-carboxamide] | 100 to 250 nM | > 100 nM
11 | CN(C)CCC(=O)N1CCC(n2cc(-c3ccc(Cl)c(NC(=O)c4coc(N)n4)c3)cn2)CC1 [Example 63, 2-Amino-N-(2-chloro-5-{1-[1-(N,N-dimethyl-beta-alanyl)piperidin-4-yl]-1H-pyrazol-4-yl}phenyl)-1,3-oxazole-4-carboxamide] | 250 to 500 nM | > 100 nM
12 | CN(C)CCCC(=O)N1CCC(n2cc(-c3ccc(Cl)c(NC(=O)c4coc(N)n4)c3)cn2)CC1 [Example 64, 2-Amino-N-[2-chloro-5-(1-{1-[4-(dimethylamino)butanoyl]piperidin-4-yl}-1H-pyrazol-4-yl)phenyl]-1,3-oxazole-4-carboxamide] | 250 to 500 nM | > 100 nM
13 | CN(C)CCC(=O)N1CC(Cn2cc(-c3ccc(Cl)c(NC(=O)c4coc(N)n4)c3)cn2)C1 [Example 65, 2-Amino-N-[2-chloro-5-{1-([1-(N,N-dimethyl-beta-alanyl)azetidin-3-yl]methyl}-1H-pyrazol-4-yl)phenyl]-1,3-oxazole-4-carboxamide] | 250 to 500 nM | 25 to 100 nM
14 | Nc1nc(C(=O)Nc2cc(-c3cnn(C4CCN(CCO)CC4)c3)ccc2Cl)co1 [Example 66, 2-Amino-N-(2-chloro-5-{1-[1-(2-hydroxyethyl)piperidin-4-yl]-1H-pyrazol-4-yl}phenyl)-1,3-oxazole-4-carboxamide] | 100 to 250 nM | > 100 nM
15 | Nc1nc(C(=O)Nc2cc(-c3ccc(OC4CCNC4)nc3)ccc2Cl)co1 (centres unmarked) [Example 68, 2-Amino-N-(2-chloro-5-(6-(pyrrolidin-3-yloxy)pyridin-3-yl)phenyl)oxazole-4-carboxamide] | 250 to 500 nM | 10 to 25 nM
16 | Nc1nc(C(=O)Nc2cc(-c3ccc(OCC4CCCNC4)nc3)ccc2Cl)co1 (centres unmarked) [Example 69, 2-Amino-N-(2-chloro-5-(6-(piperidin-3-ylmethoxy)pyridin-3-yl)phenyl)oxazole-4-carboxamide] | 250 to 500 nM | 10 to 25 nM
17 | CNCCCOc1ccc(-c2ccc(Cl)c(NC(=O)c3coc(N)n3)c2)cn1 [Example 70, 2-Amino-N-(2-chloro-5-(6-(3-(methylamino)propoxy)pyridin-3-yl)phenyl)oxazole-4-carboxamide] | 100 to 250 nM | 10 to 25 nM
18 | CC(C)NCCCOc1ccc(-c2ccc(Cl)c(NC(=O)c3coc(N)n3)c2)cn1 [Example 71, 2-Amino-N-(2-chloro-5-(6-(3-(isopropylamino)propoxy)pyridin-3-yl)phenyl)oxazole-4-carboxamide] | 100 to 250 nM | 10 to 25 nM
19 | CN(C)CCCOc1ccc(-c2ccc(Cl)c(NC(=O)c3coc(N)n3)c2)cn1 [Example 72, 2-Amino-N-(2-chloro-5-{6-[3-(dimethylamino)propoxy]pyridin-3-yl}phenyl)-1,3-oxazole-4-carboxamide] | 100 to 250 nM | 10 to 25 nM

— US10961234B2, “Oxazole derivatives for use in the treatment of cancer” (LIFEARC, priority 2016, dated 2021)
